Data as given in patent US5716934A, “Eck receptor ligands” (Amgen Inc., priority 1995, dated 1998).

Tests used:
[1] = test system: immobilized soluble extracellular domain of eck; test: Stability of eck binding activity of formulated EBP (BIAcore); format: physicochemical, human; settings: diluted into PBS to 100 μg/ml, 2 hours at 3° C., no detergent
Protocol: FIG. 7. Binding of CHO-derived EBP in various detergent formulations to immobilized eck receptor as measured by BIAcore. Purified EBP was diluted to 100 μg/ml in PBS in the presence or absence of detergent and incubated for 2 hrs. at 3° C. Protein samples were diluted to the concentrations indicated in the figure and tested for eck receptor binding.
Measuring the ability of EBP to bind to the immobilized soluble extracellular domain of eck using BIAcore, it was determined that dilute solutions of purified EBP rapidly lost the ability to bind to the eck receptor unless formulated with a protective agent such as a detergent. Recombinant CHO EBP diluted into PBS to 100 μg/ml and incubated for 2 hours at […] lost approximately 50% of its eck binding activity. […] (see FIG. 7).

[2] = test system: granulation tissue in subcutaneously implanted wound chambers; test: Rat wound chamber assay (granulation tissue formation); format: in vivo; settings: for DNA / HYDROXY-PROLINE / TOTAL GYLCOSAMINO-GLYCANS / TOTAL PROTEIN / WET WEIGHT: harvest day 12, mean ± SEM; for increase in hydroxyproline: not statistically significant
Protocol: Male Sprague-Dawley specific pathogen free rats (300-350 g; Charles River Breeding Laboratories, Inc.) were used for this study. Rats were anesthetized with sodium pentobarbital (50 mg/kg body weight) by intraperitoneal injection. Using aseptic surgical technique, a 3 cm midline incision was made on the dorsal surface of the rat. A single pocket was formed under the panniculus carnosis by blunt dissection on one side of the animal. A 3 cm long×1 cm diameter sterile stainless steel wire mesh cylinder was then inserted subcutaneously. The wound chambers used were similar to those described by Schilling et. al. (Surgery 46, 702-710 (1959)) and utilized by Hunt et. al. (Am. J. Surg. 114, 302-307 (1967)) as wound healing models. The incision was closed with wound clips. The rats survived the operation well with no evidence of postoperative discomfort. Beginning 3 days after wound chamber implantation, the rats were randomly divided into 5 groups. At this time daily injections of 1) 10 μg CHO-derived EBP, 2) 1 μg CHO-derived EBP, 3) 8 μg E. coli derived EBP, 4) 5 μg recombinant platelet derived growth factor (PDGF), or 5) 0.1 ml sterile PBS and 1 mM CHAPS were begun and continued for a total of 9 days. The injections were made directly into the wound chamber through a silicone septum at the outer edge of the chamber. Twelve days after chamber implantation, the rats were sacrificed by CO2 asphyxiation. Immediately after sacrifice, the chambers were removed surgically and carefully opened. The enclosed granulation tissue was then weighed, and stored at -70° C. for future processing.
Granulation tissue samples were thawed and homogenized with a Polytron homogenizer in 2 ml of ice-cold distilled water for approximately 1 minute. Next, 2 ml of ice-cold 10% trichloroacetic acid was added to the homogenate and incubated at 4° C. for 1 hour. The TCA-precipitated samples were centrifuged (500 g, 10 minutes) at 4° C., washed once with 2 ml of ice-cold 5% TCA, and finally washed with 2 ml of ice-cold 95% ethanol containing 50 mM sodium acetate. Samples were defatted twice with 2 ml of ethanol:ether (3:1, v/v) at 20° C. After each defatting procedure, samples were centrifuged (500×g, 10 minutes) and the supernate discarded. The pellet was then dissolved in 1N sodium hydroxide and brought up to a volume of 10 ml.
Total protein was determined by taking an aliquot of the solubilized granulation tissue and assaying the sample according to the method of Bradford (Anal. Biochem. 72, 248-251 (1976)) Bovine serum albumin (Sigma Chemical Co., St. Louis, Mo.) was used for a protein standard curve.
Total DNA content was determined as deoxy-ribose by the colorimetric method of Burton (Biochem. J. 62, 315 (1956)). Briefly, a 1 ml aliquot of the solubilized sample (in 1N NaOH) was neutralized with the addition of 0.5 ml of 2N HCl. A 1 ml aliquot of the neutralized solution was extracted in 10% perchloric acid at 90° C. for 15 minutes. A 1 ml portion of the final extract was added to 2 ml activated diphenylamine (Sigma Chemical, St. Louis, Mo.) reagent and absorbance at 600 nm was measured after overnight incubation at room temperature. Hydrolyzed calf thymus DNA (Sigma) was used to construct the standard curve. The DNA content was measured as a rough index of the number of cells in the wound chamber, with the realization that cell type and cell cycle status also influence DNA content.
Total glycosaminoglycans (GAGs) were determined using chondroitin sulfate as a standard. A spectrophotometric assay for GAGs was run utilizing a change in absorption spectrum of the dye 1,9- dimethyl methylene blue (Farndale et al. Conn. Tiss. Res. 9, 247-248 (1982)).
Total collagen content was determined as hydroxyproline (an index of collagen content) after hydrolysis of the solubilized granulation tissue in 6N HCl at 110° C. for 24 hours. […]

[3] = 1 μg per chamber per day x 9 days
[4] = 1 μg per chamber per day x 9 days, listed as CHO-derived rEBP
[5] = 10 μg per chamber per day x 9 days
[6] = 10 μg per chamber per day x 9 days, listed as CHO-derived rEBP

CHO-EBP: recombinant EBP purified from supernatants of CHO cells transfected with the EBP gene; mainly EBP^1-150 and EBP^1-159
loss of eck binding activity [1]: approximately 50%
DNA [2, 3]: 232 ± 41 µg
HYDROXY-PROLINE [2, 3]: 318.7 ± 31.7 µg
TOTAL GYLCOSAMINO-GLYCANS [2, 3]: 589.2 ± 68.4 µg
TOTAL PROTEIN [2, 3]: 3.88 ± 0.44 mg
WET WEIGHT [2, 3]: 238.0 ± 24.1 mg
DNA [2, 4]: no significant differences
HYDROXY-PROLINE [2, 4]: no significant differences
TOTAL GYLCOSAMINO-GLYCANS [2, 4]: significant increase
TOTAL PROTEIN [2, 4]: no significant differences
WET WEIGHT [2, 4]: significant increase
increase in hydroxyproline ([2]; 1 μg/chamber/day): 21%
DNA [2, 5]: 650 ± 163 µg
HYDROXY-PROLINE [2, 5]: 354.5 ± 63.7 µg
TOTAL GYLCOSAMINO-GLYCANS [2, 5]: 627.9 ± 92.4 µg
TOTAL PROTEIN [2, 5]: 7.15 ± 1.23 mg
WET WEIGHT [2, 5]: 398.2 ± 70.9 mg
DNA [2, 6]: significantly increased
TOTAL GYLCOSAMINO-GLYCANS [2, 6]: significantly increased
TOTAL PROTEIN [2, 6]: significantly increased
WET WEIGHT [2, 6]: significantly increased
increase in hydroxyproline ([2]; 10 μg/chamber/day): 35%
